From the supplement of paper PMC13380429

Key:
Settings in all cases: 72 h
Caco-2 [1] = assay: cell viability relative to DMSO; higher = less toxic
U2OS [2] = assay: as above
Vero E6 [3] = assay: as above
HepG2 [4] = assay: as above
Calu-3 [5] = assay: as above
Caco-2 [6] = assay: drug sensitivity score (DSS) for viability; higher = more toxic; extreme values may be limits of the assay
U2OS [7] = assay: as above
Vero E6 [8] = assay: as above
HepG2 [9] = assay: as above
Calu-3 [10] = assay: as above
Caco-2 [11] = assay: relative viability EC50 (midpoint between 100% and the lowest measured viability); higher = less toxic
U2OS [12] = assay: as above
Vero E6 [13] = assay: as above
HepG2 [14] = assay: as above
Calu-3 [15] = assay: as above

SMILES | cell viability (Caco-2 [1]; 1 nM) | cell viability (Caco-2 [1]; 10 nM) | cell viability (Caco-2 [1]; 100 nM) | cell viability (Caco-2 [1]; 1000 nM) | cell viability (Caco-2 [1]; 10000 nM) | cell viability (U2OS [2]; 1 nM) | cell viability (U2OS [2]; 10 nM) | cell viability (U2OS [2]; 100 nM) | cell viability (U2OS [2]; 1000 nM) | cell viability (U2OS [2]; 10000 nM) | cell viability (Vero E6 [3]; 1 nM) | cell viability (Vero E6 [3]; 10 nM) | cell viability (Vero E6 [3]; 100 nM) | cell viability (Vero E6 [3]; 1000 nM) | cell viability (Vero E6 [3]; 10000 nM) | cell viability (HepG2 [4]; 1 nM) | cell viability (HepG2 [4]; 10 nM) | cell viability (HepG2 [4]; 100 nM) | cell viability (HepG2 [4]; 1000 nM) | cell viability (HepG2 [4]; 10000 nM) | cell viability (Calu-3 [5]; 1 nM) | cell viability (Calu-3 [5]; 10 nM) | cell viability (Calu-3 [5]; 100 nM) | cell viability (Calu-3 [5]; 1000 nM) | cell viability (Calu-3 [5]; 10000 nM) | drug sensitivity score (Caco-2 [6]) | drug sensitivity score (U2OS [7]) | drug sensitivity score (Vero E6 [8]) | drug sensitivity score (HepG2 [9]) | drug sensitivity score (Calu-3 [10]) | relative viability EC50 (Caco-2 [11]) | relative viability EC50 (U2OS [12]) | relative viability EC50 (Vero E6 [13]) | relative viability EC50 (HepG2 [14]) | relative viability EC50 (Calu-3 [15])
Cc1cccc(Nc2ccccc2C(=O)O)c1C [mefenamic-acid] | 97.5% | 101% | 97.1% | 96.4% | 99.3% | 106% | 97% | 101% | 97.1% | 101% | 106% | 108% | 100% | 104% | 92% | 101% | 94.4% | 100% | 97.4% | 91.4% | 89.9% | 96.4% | 97.7% | 98.9% | 97.6% | 0 | 0 | 0 | 0 | 0 | > 10 µM | > 10 µM | > 10 µM | > 10 µM | > 10 µM
[O-][n+]1cccc(CO)c1 [mepiroxol] | 97.3% | 95.1% | 94.3% | 104% | 103% | 100% | 99.2% | 104% | 99.2% | 99.2% | 92.1% | 97.9% | 89.3% | 98.9% | 108% | 90.9% | 118% | 104% | 96.3% | 97% | 103% | 112% | 99.4% | 109% | 104% | 0 | 0 | 0 | 0 | 0 | > 10 µM | > 10 µM | > 10 µM | > 10 µM | > 10 µM
CC(=O)/N=c1/sc(S(N)(=O)=O)nn1C [methazolamide] | 110% | 101% | 100% | 94% | 96.7% | 105% | 107% | 104% | 98.3% | 102% | 97% | 99% | 98.2% | 98.4% | 92.7% | 101% | 97.6% | 101% | 101% | 102% | 100% | 99.4% | 93.7% | 98.3% | 107% | 0 | 0 | 0 | 0 | 0 | > 10 µM | > 10 µM | > 10 µM | > 10 µM | > 10 µM
COc1cccc(OC)c1C(=O)N[C@@H]1C(=O)N2[C@@H]1SC(C)(C)[C@@H]2C(=O)O [methicillin] | 95.2% | 97.2% | 101% | 91.4% | 96.5% | 105% | 94.7% | 99.6% | 99% | 99.8% | 107% | 98.6% | 94.9% | 102% | 87.9% | 96% | 96.1% | 87% | 106% | 107% | 105% | 99.1% | 97% | 99.1% | 102% | 0 | 0 | 0 | 0 | 0 | > 10 µM | > 10 µM | > 10 µM | > 10 µM | > 10 µM
CC[C@@H](CO)NC(=O)[C@@H]1C=C2c3cccc4[nH]cc(c34)C[C@H]2N(C)C1 [methylergometrine] | 97.6% | 98% | 96.2% | 96.7% | 99.5% | 96.2% | 99.1% | 102% | 98.5% | 104% | 106% | 101% | 100% | 102% | 99.8% | 98.6% | 102% | 97.5% | 110% | 93.6% | 96.9% | 98.3% | 99.4% | 86.2% | 91.2% | 0 | 0 | 0 | 0 | 1.1 | > 10 µM | > 10 µM | > 10 µM | > 10 µM | > 10 µM
CCN1C[C@]2(COC(=O)c3ccccc3N3C(=O)C[C@H](C)C3=O)CC[C@H](OC)[C@@]34[C@@H]5C[C@H]6[C@H](OC)[C@@H]5[C@](O)(C[C@@H]6OC)[C@](O)([C@@H](OC)[C@H]23)[C@@H]14 [methyllycaconitine] | 108% | 96.1% | 103% | 97% | 98.1% | 97.1% | 94.5% | 95.8% | 96.3% | 94.7% | 104% | 102% | 101% | 102% | 97.8% | 96.3% | 102% | 99.4% | 95.2% | 101% | 97.3% | 102% | 90.3% | 91.1% | 98.6% | 0 | 0 | 0 | 0 | 0 | > 10 µM | > 10 µM | > 10 µM | > 10 µM | > 10 µM
